Where a name gives a salt, the structure may show the parent alone.
What was measured:
in vivo [1] = experiment: in vivo; set-up: species or system beagle dogs; conditions: beagle, dog
Experimental: (§1) Objective of assay: The druggability of compounds was evaluated by measuring their pharmacokinetic properties in different animal species.
(§2) Assay Materials: C57BL6/J strain mice, Sprague-Dawley strain rats and beagle dogs.
(§3) The pharmacokinetic characteristics of the compound after intravenous and oral administration were assayed in animals using a standard protocol. In the assay, the candidate compound was prepared into a clear solution (intravenous injection) or a homogeneous suspension (oral administration) and administrated to the animal once. Whole blood samples were collected within 24 hours, and centrifuged at 3200 g for 10 minutes. The supernatant was separated to obtain a plasma sample. The blood concentration was quantitatively analyzed by LC-MS/MS analysis method, and pharmacokinetic parameters such as peak concentration, time to peak, clearance rate, half-life, and area under the drug-time curve were calculated.

in vivo [2] = experiment: in vivo; set-up: species or system Sprague-Dawley strain rats; conditions: Sprague-Dawley, rat
Experimental: as §1, §2, §3

coronavirus OC43 = experiment: Efficacy on suckling mice infected with coronavirus; format: in vivo, Suckling mice (C57BL6/J strain); conditions: intraperitoneal, once a day day 0 to day 6
Experimental: Objective of assay: The in vivo antiviral activity of the compound against coronavirus was evaluated by observing the percentage of weight change and survival rate of the assay animals in a suckling mouse model infected with coronavirus (COV). The mouse infection model is widely used to determine the protective effect of the compound on virus-infected animals to reflect the antiviral activity of the compound.
Suckling mice (C57BL6/J strain) were inoculated with virus (coronavirus OC43) by intranasal drops on day 0, with an inoculation dose of 3500 p.f.u./mouse. From day 0 to day 6, the mice were treated with a vehicle (5% DMSO+40% polyethylene glycol 400+55% water) or 12.5 mpk or 25 mpk of the compound of the present disclosure for 7 consecutive days, once a day, by intraperitoneal injection, for a total of 7 times, with the first administration time being 2 hours before virus inoculation. The animals were continuously observed from day 0 to day 14, and the body weight, health and survival status were recorded.

plasma protein [3] = experiment: Plasma protein binding rate (PPB), cynomolgus monkeys; format: in vitro ADME; conditions: Cynomolgus monkey plasma, 2 μM, 4 hours dialysis
Experimental: (§4) 597 μL of blank plasma from CD-1 mice, SD rats, beagle dogs, cynomolgus monkeys and humans were weighed, and the working solution of the assay compound or the working solution of warfarin was added, so that the final concentration of the assay compound and warfarin in the plasma sample was 2 μM. The samples were mixed thoroughly. The final concentration of DMSO as an organic phase was 0.5%; 50 μL of the assay compound and warfarin plasma samples were pipetted into a sample receiving plate, and the corresponding volume of blank plasma or buffer was immediately added, so that the final volume of each sample well was 100 μL, and the volume ratio of plasma:dialysis buffer was 1:1, and then the stop solution was added to these samples. The samples were used as the To sample for recovery and stability determination. The assay compound and warfarin plasma samples were added to the dosing end of each dialysis well, and blank dialysis buffer was added to the receiving end corresponding to the dialysis well. Then the dialysis plate was sealed with a gas permeable membrane and placed in a humidified 5% CO2 incubator, and incubated with shaking at 37° C. and 100 rpm for 4 hours. […] After protein precipitation, all samples were analyzed by LC/MS/MS, and the free rate (% Unbound) of the compound was calculated by the following formula: […]

plasma protein [4] = experiment: Plasma protein binding rate (PPB), beagle dogs; format: in vitro ADME; conditions: 2 μM, 4 hours dialysis
Experimental: as §4

Work on `Cn1cnc(Cc2cn(Cc3cc(F)c(F)cc3F)c(Nc3cc4cn(C)nc4cc3Cl)nc2=O)n1` [Compound 4 hydrochloride] yielded a Vd (in vivo [1]; iv, 0.1 mg/kg) of 2.5 L/kg, a clearance (in vivo [1]; iv, 0.1 mg/kg) of 7.2 mL/min/kg and a half-life (in vivo [1]; iv, 0.1 mg/kg) of 6.2 h. It also gave an AUC (in vivo [1]; iv, 0.1 mg/kg, AUC) of 0.504 µM·h, an AUC (in vivo [1]; iv, 0.1 mg/kg, AUCfree) of 0.12 µM·h and a Cmax (in vivo [1]; po, 0.5 mg/kg) of 270 nM. It also gave a Tmax (in vivo [1]; po, 0.5 mg/kg) of 3 h, a bioavailability (in vivo [1]; po, 0.5 mg/kg) of 121% and a half-life (in vivo [1]; po, 0.5 mg/kg) of 9.5 h. It also gave an AUC (in vivo [1]; po, 0.5 mg/kg, AUC) of 3.1 µM·h, an AUC (in vivo [1]; po, 0.5 mg/kg, AUCfree) of 0.74 µM·h and a Vd (in vivo [2]; iv, 0.25 mg/kg) of 0.62 L/kg. It also gave a clearance (in vivo [2]; iv, 0.25 mg/kg) of 4.1 mL/min/kg, a half-life (in vivo [2]; iv, 0.25 mg/kg) of 2.2 h and an AUC (in vivo [2]; iv, 0.25 mg/kg, AUC) of 2.4 µM·h. The AUC (in vivo [2]; iv, 0.25 mg/kg, AUCfree) was 0.11 µM·h, the Cmax (in vivo [2]; po, 0.5 mg/kg) was 530 nM and the Tmax (in vivo [2]; po, 0.5 mg/kg) was 2 h. For the same compound, the bioavailability (in vivo [2]; po, 0.5 mg/kg) was 103%, the half-life (in vivo [2]; po, 0.5 mg/kg) was 3.4 h and the AUC (in vivo [2]; po, 0.5 mg/kg, AUC) was 4.8 µM·h. For the same compound, the AUC (in vivo [2]; po, 0.5 mg/kg, AUCfree) was 0.22 µM·h, the Survival rate (coronavirus OC43; 12.5 mpk, Day 1) was 100% and the “Weight changes (Percent of starting body weight)” value (coronavirus OC43; 12.5 mpk, Day 1) was 5.35 ± 0.58% of starting body weight. The Survival rate (coronavirus OC43; 12.5 mpk, Day 2) was 100%, the “Weight changes (Percent of starting body weight)” value (coronavirus OC43; 12.5 mpk, Day 2) was 14.57 ± 1.37% of starting body weight and the Survival rate (coronavirus OC43; 12.5 mpk, Day 3) was 100%. For the same compound, the “Weight changes (Percent of starting body weight)” value (coronavirus OC43; 12.5 mpk, Day 3) was 22.55 ± 1.37% of starting body weight, the Survival rate (coronavirus OC43; 12.5 mpk, Day 4) was 100% and the “Weight changes (Percent of starting body weight)” value (coronavirus OC43; 12.5 mpk, Day 4) was 30.95 ± 1.19% of starting body weight. For the same compound, the Survival rate (coronavirus OC43; 12.5 mpk, Day 5) was 100%, the “Weight changes (Percent of starting body weight)” value (coronavirus OC43; 12.5 mpk, Day 5) was 39.15 ± 1.15% of starting body weight and the Survival rate (coronavirus OC43; 12.5 mpk, Day 6) was 100%. For the same compound, the “Weight changes (Percent of starting body weight)” value (coronavirus OC43; 12.5 mpk, Day 6) was 42.61 ± 1.80% of starting body weight, the Survival rate (coronavirus OC43; 12.5 mpk, Day 7) was 100% and the “Weight changes (Percent of starting body weight)” value (coronavirus OC43; 12.5 mpk, Day 7) was 49.30 ± 2.16% of starting body weight. For the same compound, the Survival rate (coronavirus OC43; 12.5 mpk, Day 8) was 100%, the “Weight changes (Percent of starting body weight)” value (coronavirus OC43; 12.5 mpk, Day 8) was 55.56 ± 2.05% of starting body weight and the Survival rate (coronavirus OC43; 12.5 mpk, Day 9) was 100%. For the same compound, the “Weight changes (Percent of starting body weight)” value (coronavirus OC43; 12.5 mpk, Day 9) was 57.80 ± 4.27% of starting body weight, the Survival rate (coronavirus OC43; 12.5 mpk, Day 10) was 100% and the “Weight changes (Percent of starting body weight)” value (coronavirus OC43; 12.5 mpk, Day 10) was 60.74 ± 6.34% of starting body weight. For the same compound, the Survival rate (coronavirus OC43; 12.5 mpk, Day 11) was 100%, the “Weight changes (Percent of starting body weight)” value (coronavirus OC43; 12.5 mpk, Day 11) was 60.39 ± 8.87% of starting body weight and the Survival rate (coronavirus OC43; 12.5 mpk, Day 12) was 100%. The “Weight changes (Percent of starting body weight)” value (coronavirus OC43; 12.5 mpk, Day 12) was 65.10 ± 10.85% of starting body weight, the Survival rate (coronavirus OC43; 12.5 mpk, Day 13) was 100% and the “Weight changes (Percent of starting body weight)” value (coronavirus OC43; 12.5 mpk, Day 13) was 76.18 ± 9.69% of starting body weight. For the same compound, the Survival rate (coronavirus OC43; 12.5 mpk, Day 14) was 100%, the “Weight changes (Percent of starting body weight)” value (coronavirus OC43; 12.5 mpk, Day 14) was 96.72 ± 10.96% of starting body weight and the Survival rate (coronavirus OC43; 25 mpk, Day 1) was 100%. The “Weight changes (Percent of starting body weight)” value (coronavirus OC43; 25 mpk, Day 1) was 6.45 ± 1.94% of starting body weight, the Survival rate (coronavirus OC43; 25 mpk, Day 2) was 100% and the “Weight changes (Percent of starting body weight)” value (coronavirus OC43; 25 mpk, Day 2) was 12.35 ± 1.74% of starting body weight. The Survival rate (coronavirus OC43; 25 mpk, Day 3) was 100%, the “Weight changes (Percent of starting body weight)” value (coronavirus OC43; 25 mpk, Day 3) was 22.61 ± 2.41% of starting body weight and the Survival rate (coronavirus OC43; 25 mpk, Day 4) was 100%. For the same compound, the “Weight changes (Percent of starting body weight)” value (coronavirus OC43; 25 mpk, Day 4) was 28.78 ± 2.69% of starting body weight, the Survival rate (coronavirus OC43; 25 mpk, Day 5) was 100% and the “Weight changes (Percent of starting body weight)” value (coronavirus OC43; 25 mpk, Day 5) was 34.72 ± 2.23% of starting body weight. The Survival rate (coronavirus OC43; 25 mpk, Day 6) was 100%, the “Weight changes (Percent of starting body weight)” value (coronavirus OC43; 25 mpk, Day 6) was 39.95 ± 2.01% of starting body weight and the Survival rate (coronavirus OC43; 25 mpk, Day 7) was 100%. For the same compound, the “Weight changes (Percent of starting body weight)” value (coronavirus OC43; 25 mpk, Day 7) was 45.35 ± 2.00% of starting body weight, the Survival rate (coronavirus OC43; 25 mpk, Day 8) was 100% and the “Weight changes (Percent of starting body weight)” value (coronavirus OC43; 25 mpk, Day 8) was 49.97 ± 1.91% of starting body weight. For the same compound, the Survival rate (coronavirus OC43; 25 mpk, Day 9) was 100%, the “Weight changes (Percent of starting body weight)” value (coronavirus OC43; 25 mpk, Day 9) was 55.69 ± 2.31% of starting body weight and the Survival rate (coronavirus OC43; 25 mpk, Day 10) was 100%. For the same compound, the “Weight changes (Percent of starting body weight)” value (coronavirus OC43; 25 mpk, Day 10) was 62.00 ± 2.26% of starting body weight, the Survival rate (coronavirus OC43; 25 mpk, Day 11) was 100% and the “Weight changes (Percent of starting body weight)” value (coronavirus OC43; 25 mpk, Day 11) was 72.13 ± 3.02% of starting body weight. The Survival rate (coronavirus OC43; 25 mpk, Day 12) was 100%, the “Weight changes (Percent of starting body weight)” value (coronavirus OC43; 25 mpk, Day 12) was 87.49 ± 3.63% of starting body weight and the Survival rate (coronavirus OC43; 25 mpk, Day 13) was 100%. The “Weight changes (Percent of starting body weight)” value (coronavirus OC43; 25 mpk, Day 13) was 95.42 ± 4.90% of starting body weight, the Survival rate (coronavirus OC43; 25 mpk, Day 14) was 100% and the “Weight changes (Percent of starting body weight)” value (coronavirus OC43; 25 mpk, Day 14) was 118.37 ± 5.15% of starting body weight. The “PPB_Unbound (%)” value (plasma protein [3]) was 18.8% and the “PPB_Unbound (%)” value (plasma protein [4]) was 23.9%.

— patent US20250163029A1, “PYRIDONE OR PYRIMIDONE DERIVATIVE AND APPLICATION THEREOF” (Medshine Discovery Inc., priority 2022, published 2025)
